This passage reports melting point results from the Bradley open melting point set (2014).

Structures are written as SMILES.

Turning to `CCCCCCCCNCCCCCCCC` [di-n-octylamine], the melting point (commonly the temperature, or range, at which the solid turns liquid) was found to be 14 °C.

`C[C@@H](N)C(=O)O` [d-alanine] showed a melting point of 291 °C.

Consider `[2H]C(Cl)(Cl)Cl` [Trichloro(~2~H)methane], for which the melting point is -64 °C.

In the case of `O=C(O)/C=C/C(=O)O` [Fumaric Acid], the melting point is 287 °C.

Regarding `NS(=O)(=O)c1cc(C(=O)O)c(NCc2ccco2)cc1Cl` [Furosemide], the melting point is 206 °C.

Take `O=[N+]([O-])c1ccc(Oc2ccc(Cl)cc2Cl)cc1` [2,4-Dichloro-1-(4-nitrophenoxy)benzene]: the melting point worked out at 70.5 °C.

`CC(=O)CCc1ccc(CCC(C)=O)cc1` [4,4'-benzene-1,4-diyldibutan-2-one] yielded a melting point of 56 °C.

For the molecule `CCC(=C(c1ccccc1)c1ccc(OCCN(C)C)cc1)c1ccccc1` [tamoxifen], the melting point was 96 °C.

Regarding `O=[N+]([O-])O[C@H]1CO[C@H]2[C@@H]1OC[C@H]2O[N+](=O)[O-]` [isosorbide dinitrate], the melting point was 70 °C.

`O=C(O)C=CC(=O)O` [maleic acid] had a melting point of 134 °C.

With `Cc1cccc2ccccc12` [1-methylnaphthalene], the melting point was -22 °C.

For `CC(=O)C(C)=NO` [2,3-butanedione monoxime], the melting point is 76 °C.

With `C/C=C\CC` [cis-2-pentene], the melting point is -151 °C.

For the molecule `ClCC(Cl)(Cl)Cl` [1,1,1,2-tetrachloroethane], the melting point was -70 °C.

In turn, `O=C(/C=C1\Cc2ccccc21)c1ccccc1` showed a melting point of 55 °C.

In turn, `O=C(O)Cc1cccc(C(F)(F)F)c1` [3-(trifluoromethyl)phenylacetic acid] yielded a melting point of 78 °C.

For `c1ccc(C(CCN2CCCCC2)c2ccccc2)cc1` [fenpiprane], the melting point was found to be 41 °C.

In turn, `CC(=O)C1C(=O)C=C(C)OC1=O` (centres undefined) [dehydroacetic acid] had a melting point of 111 °C.

`Nc1cccc(C(=O)c2cccc(N)c2)c1` [3,3'-diaminobenzophenone] came in with a melting point of 150 °C.

On to `CCOC(=O)C(=O)Nc1ccccc1` [ethyl oxanilate], for which the melting point is 67 °C.

Turning to `BrCCCBr` [1,3-dibromopropane], the melting point is -34 °C.

As to `COc1cc2c(c(OC)c1OC)-c1ccc(OC)c(=O)cc1[C@@H](NC(C)=O)CC2`, the melting point came to 142 °C.

Regarding `COC(=O)c1ccc2nccnc2c1` [methyl quinoxaline-6-carboxylate], the melting point came out at 98 °C.

Take `Clc1cc(Cl)cc(Br)c1` [1-bromo-3,5-dichlorobenzene]: the melting point worked out at 75 °C.

As to `COc1ccc2c(c1)c(CC(=O)OCC(=O)O)c(C)n2C(=O)c1ccc(Cl)cc1` [acemetacin], the melting point worked out at 150 °C.

For `CCNC(=O)OC(C)(C)C` [N-boc-ethylamine], the melting point came out at 40 °C.

Turning to `[O-][n+]1onc2ccccc21` [benzofuroxan], the melting point was 69 °C.

For `CO[C@H]1O[C@H](CO)[C@@H](O)[C@H](O)[C@H]1O` [methyl alpha-d-glucopyranoside], the melting point was 169 °C.

Molecule `CCOC(=O)c1ccc(O)cc1` [Ethyl 4-hydroxybenzoate] yielded a melting point of 116 °C.

Consider `O=C(Cl)c1ccc(Cl)cc1` [4-Chlorobenzoyl chloride], for which the melting point came out at 13 °C.

`O=C(O)/C=C/C(=O)O` [fumaric acid]: the melting point is 300 °C.

The molecule `O=C(O)c1ccccc1` [Benzoic acid] yielded a melting point of 122 °C.

In turn, `COc1ccc([N+](=O)[O-])cc1` [4-nitroanisole] gave a melting point of 52 °C.

As to `CCSC(SCC)C(OC(C)=O)C(OC(C)=O)C(OC(C)=O)C(COC(C)=O)OC(C)=O` (centres undefined), the melting point was 112 °C.

In the case of `BrC(Br)C(Br)Br` [1,1,2,2-Tetrabromoethane], the melting point came out at 0 °C.

Molecule `CCC1=C(C)N=NC1C` (centres undefined) [4-ethyl-3,5-dimethyl-1H-pyrazole] returned a melting point of 43 °C.

Turning to `O=[N+]([O-])c1cc[n+]([O-])c2ccccc12` [4-Nitroquinoline 1-oxide], the melting point stood at 154 °C.

`O=C(O)CC[N+](=O)[O-]` [3-Nitropropanoic acid] returned a melting point of 64 °C.

With `O=C1CCC(=O)O1` [succinic anhydride], the melting point was 120 °C.

Turning to `C[Si]1(C)O[Si](C)(C)O[Si](C)(C)O[Si](C)(C)O[Si](C)(C)O1` [decamethylcyclopentasiloxane], the melting point is -44 °C.

`Fc1cc(I)ccc1Br` [1-bromo-2-fluoro-4-iodobenzene] came in with a melting point of 36 °C.

As for `NCCCCCC(=O)O` [Aminocaproic Acid], the melting point is 205 °C.

In turn, `COC(=O)c1cccc(C(N)=O)c1` [isophthalic_acid,_methylester_amide] came in with a melting point of 148 °C.

As for `[2H]C1([2H])OC([2H])([2H])C([2H])([2H])C1([2H])[2H]` [(~2~H_8_)Tetrahydrofuran], the melting point is -106 °C.

As to `CC(=O)c1ccccc1[N+](=O)[O-]` [2'-nitroacetophenone], the melting point came out at 27 °C.

For `C=CCCCCCCCCCC` [1-dodecene], the melting point is -35 °C.

As for `COc1ccc(CCN2CCC(Nc3nc4ccccc4n3Cc3ccc(F)cc3)CC2)cc1` [Astemizole], the melting point is 149 °C.

`C=Cc1ccccc1O` [o-vinyl_phenol]: the melting point amounted to 29 °C.

`O/N=C(/C=C/c1ccccc1)c1ccccc1` [2-Propen-1-one, 1,3-diphenyl-, oxime, (E,Z)-] had a melting point of 116 °C.

For the molecule `CCC(C)=O` [2-butanone], the melting point was -86 °C.

The molecule `O=C(CCCN1CCC(n2c(=O)[nH]c3ccccc32)CC1)c1ccc(F)cc1` [benperidol] showed a melting point of 171 °C.

As to `Cc1cc(N)n[nH]1` [3-amino-5-methyl-1h-pyrazole], the melting point was 45 °C.

For the molecule `C#CCCCCCCCCCCCCC` [1-pentadecyne], the melting point is 10 °C.

Turning to `C[C@@H]1CN[C@@H](C)CN1` [trans-2,5-dimethylpiperazine], the melting point was 117 °C.

The molecule `CCCCCCCC/C=CCCCCCCCCCCCC(=O)O` [erucic acid] had a melting point of 31 °C.

As for `N#Cc1c(O)cccc1F` [2-fluoro-6-hydroxybenzonitrile], the melting point was found to be 156 °C.

In the case of `Nc1cccnc1[N+](=O)[O-]` [3-amino-2-nitropyridine], the melting point stood at 192 °C.

`CCC1=Nc2ccccc2C1(C)C(=O)OC` (centres undefined) [methyl 2-ethyl-3-methyl-3H-indole-3-carboxylate]: the melting point is 72 °C.

Take `O=S1(=O)CCCO1` [1,3-propanesultone]: the melting point is 32 °C.

Turning to `c1ccc(P(C2CCCCC2)C2CCCCC2)cc1` [dicyclohexylphenylphosphine], the melting point turned out to be 60 °C.

`C/C(=N\Nc1cccc2cccnc12)c1cccs1` [8-{(2E)-2-[1-(2-Thienyl)ethylidene]hydrazino}quinoline] showed a melting point of 160 °C.

In turn, `COc1ccc2c(c1)C(O)OC2=O` (centres undefined) [3-hydroxy-5-methoxy-2-benzofuran-1(3H)-one] gave a melting point of 137 °C.

For `NCCc1ccc(-c2ccccc2)cc1` [2-(4-biphenylyl)ethylamine], the melting point came to 52 °C.

As to `C=C(C)CC` [2-Methylbut-1-ene], the melting point was -137 °C.
